Columns and labels:
[1] = Adsorption of polysorbate 80 and TnBP by the multilayer film of the 75 mL flexible bag (HPLC)
[2] = Adsorption of Triton X-100 by the multilayer film of the 75 mL flexible bag (HPLC); assay type: physicochemical; settings: 120 minutes
Procedure: In parallel, a negative control was carried out, repeating the experiment in a 0.5 litre glass flask filled with 316 mL of a 1% Triton X-100® solution. […] Samples were taken after 0 and 120 minutes.

[3] = Distribution of the concentration of Triton X-100 in a 50 L bag (RP-HPLC); assay type: physicochemical; settings: 1% Triton X-100 in purified water
[4] = Bag according to the invention, 30 min, 25±3° C.
[5] = Bag according to the invention, 1 hour, 25±3° C.
[6] = Bag according to the invention, 2 hours, 25±3° C.

Substance | adsorption by the bag ([1]; 75 mL flexible bag, 2 hours, 25±3° C.) | Polysorbate 80 Concentration ([1]; Bag according to the invention, 0 min, 25±3° C.) [mg/L] | Polysorbate 80 Adsorption with respect to T0 [1, 4] [%] | Polysorbate 80 Concentration [1, 4] [mg/L] | Polysorbate 80 Adsorption with respect to T0 [1, 5] [%] | Polysorbate 80 Concentration [1, 5] [mg/L] | Polysorbate 80 Adsorption with respect to T0 [1, 6] [%] | Polysorbate 80 Concentration [1, 6] [mg/L] | Polysorbate 80 Concentration ([1]; Glass flask (negative control), 30 min) [mg/L] | concentration after 2 hours of incubation ([1]; in the bag or in the glass flask) | reduction of the concentration of Triton X-100 ([2]; 0.5 litre glass flask (negative control), 1% solution, magnetic stirring) [%] | adsorption of the Triton X-100 by the bag ([2]; 75 mL flexible bag, 1% (w/w) solution) | reduction of the concentration of Triton X-100 ([2]; 75 mL flexible bag, 1% (w/w) solution, orbital stirring, 20±5° C.) [%] | greatest difference observed between the lower and higher concentrations measured ([3]; 0 to 120 minutes) [%] | difference in concentration of Triton X-100 between the upper part and the bottom of the bag ([3]; stirring 40 rpm) [%]
polyethylene glycol monooleate [Polysorbate 80] | no significant adsorption | 11147 | −2.3 | 11408 | −3.3 | 11519 | −2.6 | 11432 | 10374 | stable |  |  |  |  | 
polyethylene glycol tert-octylphenyl ether [Triton X-100®] |  |  |  |  |  |  |  |  |  |  | 3.1 | no significant adsorption | 5 | 7.90 | 2.7
